Test system: MV-4-11 cells
Assay: Gene expression microarray analysis (Affymetrix PrimeView) and GSEA
Type: cell-based, human
Set-up: RFU PODN (11730768_x_at) / Fold change /veh PODN (11730768_x_at) / RFU LINC00158 (11744669_a_at) / Fold change /veh LINC00158 (11744669_a_at) / RFU DUSP10 (11751237_a_at) / Fold change /veh DUSP10 (11751237_a_at) / RFU ID3 (11757404_x_at) / Fold change /veh ID3 (11757404_x_at) / RFU PLEKHG5 (11737974_s_at) / Fold change /veh PLEKHG5 (11737974_s_at) / RFU LRRC4B (11730491_at) / Fold change /veh LRRC4B (11730491_at) / RFU GIMAP4 (11747438_a_at) / Fold change /veh GIMAP4 (11747438_a_at) / RFU KRT8 (11758183_x_at) / Fold change /veh KRT8 (11758183_x_at) / RFU CNN1 (11734310_a_at) / Fold change /veh CNN1 (11734310_a_at) / RFU VPS37D (11726825_at) / Fold change /veh VPS37D (11726825_at) / RFU C10orf10 (11716522_x_at) / Fold change /veh C10orf10 (11716522_x_at) / RFU KIR2DL2 /// KIR2DL4 /// KIR2DL5A /// KIR2DL5B /// KIR2DS1 /// KIR2DS2 /// KIR2DS3 /// KIR2DS4 /// KIR3DL3 /// KIR3DL3 /// KIR3DS1 (11738374_at) / Fold change /veh KIR2DL2 /// KIR2DL4 /// KIR2DL5A /// KIR2DL5B /// KIR2DS1 /// KIR2DS2 /// KIR2DS3 /// KIR2DS4 /// KIR3DL3 /// KIR3DL3 /// KIR3DS1 (11738374_at) / RFU C1QL1 (11718748_at) / Fold change /veh C1QL1 (11718748_at) / RFU TMPRSS4 (11747572_a_at) / Fold change /veh TMPRSS4 (11747572_a_at) / RFU HAMP (11756126_x_at) / Fold change /veh HAMP (11756126_x_at) / RFU RNFT2 (11725882_a_at) / Fold change /veh RNFT2 (11725882_a_at) / RFU NR4A2 (11747474_a_at) / Fold change /veh NR4A2 (11747474_a_at) / RFU ABCC12 (11746883_a_at) / Fold change /veh ABCC12 (11746883_a_at) / RFU TMEM136 (11760407_x_at) / Fold change /veh TMEM136 (11760407_x_at) / RFU CLDN22 /// WWC2 (11732394_at) / Fold change /veh CLDN22 /// WWC2 (11732394_at) / RFU HLA-DPB1 (11760878_x_at) / Fold change /veh HLA-DPB1 (11760878_x_at) / RFU SPINT1 (11716480_a_at) / Fold change /veh SPINT1 (11716480_a_at) / RFU GAP43 (11754022_s_at) / Fold change /veh GAP43 (11754022_s_at) / RFU A4GNT (11735810_at) / Fold change /veh A4GNT (11735810_at) / RFU PRB3 (11715151_x_at) / Fold change /veh PRB3 (11715151_x_at) / RFU TUBB4B (11761932_at) / Fold change /veh TUBB4B (11761932_at) / RFU CAPN14 (11732068_a_at) / Fold change /veh CAPN14 (11732068_a_at) / RFU TMCC2 (11721928_a_at) / Fold change /veh TMCC2 (11721928_a_at) / RFU IRGQ (11745062_a_at) / Fold change /veh IRGQ (11745062_a_at) / RFU FAM174B (11720279_a_at) / Fold change /veh FAM174B (11720279_a_at) / RFU TMPRSS4 (11748680_a_at) / Fold change /veh TMPRSS4 (11748680_a_at) / RFU FAM212B (11763350_a_at) / Fold change /veh FAM212B (11763350_a_at) / RFU PLEKHG5 (11743358_a_at) / Fold change /veh PLEKHG5 (11743358_a_at) / RFU ZSCAN30 (11745921_a_at) / Fold change /veh ZSCAN30 (11745921_a_at) / RFU CMKLR1 (11741424_a_at) / Fold change /veh CMKLR1 (11741424_a_at) / RFU LOC101060620 /// MAPK8IP1 (11723275_at) / Fold change /veh LOC101060620 /// MAPK8IP1 (11723275_at) / RFU SPTSSB (11747773_x_at) / Fold change /veh SPTSSB (11747773_x_at) / RFU PRSS12 (11739890_at) / Fold change /veh PRSS12 (11739890_at) / RFU BIN1 (11741810_x_at) / Fold change /veh BIN1 (11741810_x_at) / RFU WNT11 (11732464_a_at) / Fold change /veh WNT11 (11732464_a_at) / RFU C10orf10 (11716521_a_at) / Fold change /veh C10orf10 (11716521_a_at) / RFU C5orf56 (11738089_at) / Fold change /veh C5orf56 (11738089_at) / RFU CYB561 (11721691_x_at) / Fold change /veh CYB561 (11721691_x_at) / RFU ANKRD19P (11752326_a_at) / Fold change /veh ANKRD19P (11752326_a_at) / RFU OR2T12 /// OR2T33 /// OR2T8 (11738714_s_at) / Fold change /veh OR2T12 /// OR2T33 /// OR2T8 (11738714_s_at) / RFU VCAN (11748164_a_at) / Fold change /veh VCAN (11748164_a_at) / RFU JSRP1 (11732532_at) / Fold change /veh JSRP1 (11732532_at) / RFU KRTAP10-11 (11738290_x_at) / Fold change /veh KRTAP10-11 (11738290_x_at) / RFU MYO3A (11730013_a_at) / Fold change /veh MYO3A (11730013_a_at) / RFU EBF3 (11725865_a_at) / Fold change /veh EBF3 (11725865_a_at) / RFU CAMK2N1 (11719241_x_at) / Fold change /veh CAMK2N1 (11719241_x_at) / RFU C5orf56 (11738088_a_at) / Fold change /veh C5orf56 (11738088_a_at) / RFU OLFML3 (11715873_a_at) / Fold change /veh OLFML3 (11715873_a_at) / RFU LOC100653217 /// NTM (11731650_a_at) / Fold change /veh LOC100653217 /// NTM (11731650_a_at) / RFU MAPK11 (11762145_a_at) / Fold change /veh MAPK11 (11762145_a_at) / RFU FIZ1 (11724087_x_at) / Fold change /veh FIZ1 (11724087_x_at) / RFU OASL (11726364_x_at) / Fold change /veh OASL (11726364_x_at) / RFU SOX15 (11748057_x_at) / Fold change /veh SOX15 (11748057_x_at) / RFU CD79A (11719716_a_at) / Fold change /veh CD79A (11719716_a_at) / RFU HIST1H1D (11736915_at) / Fold change /veh HIST1H1D (11736915_at) / RFU CASKIN2 (11723855_a_at) / Fold change /veh CASKIN2 (11723855_a_at) / RFU LOC730098 (11760151_x_at) / Fold change /veh LOC730098 (11760151_x_at) / RFU OR4N2 (11742367_at) / Fold change /veh OR4N2 (11742367_at) / RFU PRRT2 (11749266_a_at) / Fold change /veh PRRT2 (11749266_a_at) / RFU SNX32 (11753110_a_at) / Fold change /veh SNX32 (11753110_a_at) / RFU CDHR5 (11726645_a_at) / Fold change /veh CDHR5 (11726645_a_at) / RFU RCAN1 (11760418_a_at) / Fold change /veh RCAN1 (11760418_a_at) / RFU FAM167A (11723789_a_at) / Fold change /veh FAM167A (11723789_a_at) / RFU FAM26E (11764081_at) / Fold change /veh FAM26E (11764081_at) / RFU ISYNA1 (11749810_s_at) / Fold change /veh ISYNA1 (11749810_s_at) / RFU ACY1 (11761880_at) / Fold change /veh ACY1 (11761880_at) / RFU 11764098_at / Fold change /veh 11764098_at / RFU SAMD14 (11745864_x_at) / Fold change /veh SAMD14 (11745864_x_at) / RFU NPB (11741838_a_at) / Fold change /veh NPB (11741838_a_at) / RFU TMPRSS6 (11731388_a_at) / Fold change /veh TMPRSS6 (11731388_a_at) / RFU KRTAP10-2 (11738614_at) / Fold change /veh KRTAP10-2 (11738614_at) / RFU ARHGAP8 /// PRR5-ARHGAP8 (11727945_x_at) / Fold change /veh ARHGAP8 /// PRR5-ARHGAP8 (11727945_x_at) / RFU KRTAP5-7 /// NADSYN1 (11734609_at) / Fold change /veh KRTAP5-7 /// NADSYN1 (11734609_at) / RFU RASL12 (11751679_a_at) / Fold change /veh RASL12 (11751679_a_at) / RFU CDKN2B (11736163_a_at) / Fold change /veh CDKN2B (11736163_a_at) / RFU PRF1 (11729649_at) / Fold change /veh PRF1 (11729649_at) / RFU, ZNF638 /// ZNF638-IT1 / Fold change vs veh, ZNF638 /// ZNF638-IT1 / RFU, PANK3 / Fold change vs veh, PANK3 / RFU, SH3YL1 / Fold change vs veh, SH3YL1 / RFU, ZEB2 / Fold change vs veh, ZEB2 / RFU, NRIP1 / Fold change vs veh, NRIP1 / RFU, PTTG1IP / Fold change vs veh, PTTG1IP / RFU, CAPN2 / Fold change vs veh, CAPN2 / RFU, MED14 / Fold change vs veh, MED14 / RFU, SNORA58 / Fold change vs veh, SNORA58 / RFU, C1orf63 / Fold change vs veh, C1orf63 / RFU, LRRFIP1 / Fold change vs veh, LRRFIP1 / RFU, NDUFAF7 / Fold change vs veh, NDUFAF7 / RFU, SLC12A2 / Fold change vs veh, SLC12A2 / RFU, IBTK / Fold change vs veh, IBTK / RFU, ESF1 / Fold change vs veh, ESF1 / Fold change vs veh, TMEM50B / RFU, TAOK1 / Fold change vs veh, TAOK1 / RFU, ACBD3 / Fold change vs veh, ACBD3 / RFU, TMA16 / Fold change vs veh, TMA16 / RFU, RWDD3 / Fold change vs veh, RWDD3 / RFU, BCAT1 / Fold change vs veh, BCAT1 / RFU, EDEM3 / Fold change vs veh, EDEM3 / RFU, TMEM33 / Fold change vs veh, TMEM33 / RFU, WDR75 / Fold change vs veh, WDR75 / RFU, AHCTF1 / Fold change vs veh, AHCTF1 / RFU, TFRC / Fold change vs veh, TFRC / RFU, ZDHHC17 / Fold change vs veh, ZDHHC17 / RFU, NOM1 / Fold change vs veh, NOM1 / RFU, ARL8B / Fold change vs veh, ARL8B / RFU, ZBTB11 / Fold change vs veh, ZBTB11 / RFU, TAMM41 / Fold change vs veh, TAMM41 / RFU, KIAA1704 /// LOC100996395 / Fold change vs veh, KIAA1704 /// LOC100996395 / RFU, ING1 / Fold change vs veh, ING1 / RFU, TRMT61B / Fold change vs veh, TRMT61B / RFU, FUBP3 / Fold change vs veh, FUBP3 / RFU, TP53 / Fold change vs veh, TP53 / RFU, TNKS2 / Fold change vs veh, TNKS2 / RFU, ZFP14 / Fold change vs veh, ZFP14 / RFU, ACTR2 / Fold change vs veh, ACTR2 / RFU, PPP3R1 / Fold change vs veh, PPP3R1 / RFU, PIK3R1 / Fold change vs veh, PIK3R1 / RFU, HNRNPA1 / Fold change vs veh, HNRNPA1 / RFU, RNF170 / Fold change vs veh, RNF170 / RFU, ZNF28 / Fold change vs veh, ZNF28 / RFU, RNGTT / Fold change vs veh, RNGTT / RFU, OGT / Fold change vs veh, OGT / RFU, BRD1 / Fold change vs veh, BRD1 / RFU, MARS / Fold change vs veh, MARS / RFU, ZNF655 / Fold change vs veh, ZNF655 / RFU, FAHD1 / Fold change vs veh, FAHD1 / RFU, BDP1 / Fold change vs veh, BDP1 / RFU, LRRCC1 / Fold change vs veh, LRRCC1 / RFU, ARID1A / Fold change vs veh, ARID1A / RFU, ZNF146 / Fold change vs veh, ZNF146 / RFU, ZNF330 / Fold change vs veh, ZNF330 / RFU, GPN3 / Fold change vs veh, GPN3 / RFU, C9orf123 / Fold change vs veh, C9orf123 / RFU, N4BP2L2 / Fold change vs veh, N4BP2L2 / RFU, ARFIP1 / Fold change vs veh, ARFIP1 / RFU, FAM179B / Fold change vs veh, FAM179B / RFU, BCL10 / Fold change vs veh, BCL10 / RFU, UHRF1BP1L / Fold change vs veh, UHRF1BP1L / RFU, BET1 / Fold change vs veh, BET1 / RFU, CNOT2 / Fold change vs veh, CNOT2 / RFU, ZNF268 / Fold change vs veh, ZNF268 / Fold change vs veh, ZNF507 / RFU, DGCR2 / Fold change vs veh, DGCR2 / RFU, WDSUB1 / Fold change vs veh, WDSUB1 / Fold change vs veh, HSP90B1 /// MIR3652 / RFU, ADSS / Fold change vs veh, ADSS / RFU, GK / Fold change vs veh, GK / RFU, ZNF148 / Fold change vs veh, ZNF148 / RFU, TAF9 / Fold change vs veh, TAF9 / RFU, SLC1A5 / Fold change vs veh, SLC1A5 / RFU, SLMO2 / Fold change vs veh, SLMO2 / RFU, ABCC4 / Fold change vs veh, ABCC4 / RFU, LOC101060439 /// RAP1B / Fold change vs veh, LOC101060439 /// RAP1B / RFU, RFX7 / Fold change vs veh, RFX7 / RFU, GTPBP10 / Fold change vs veh, GTPBP10 / RFU, CNEP1R1 / Fold change vs veh, CNEP1R1 / RFU, BIVM-ERCC5 /// ERCC5 / Fold change vs veh, BIVM-ERCC5 /// ERCC5 / RFU, ILF3 / Fold change vs veh, ILF3 / RFU 11762660_at / Fold change /veh 11762660_at / RFU VCAN (11757783_s_at) / Fold change /veh VCAN (11757783_s_at) / RFU DDX43 (11728927_at) / Fold change /veh DDX43 (11728927_at) / RFU KRT8 (11758188_x_at) / Fold change /veh KRT8 (11758188_x_at) / RFU NKD1 (11759106_at) / Fold change /veh NKD1 (11759106_at) / RFU SRD5A1 (11742802_a_at) / Fold change /veh SRD5A1 (11742802_a_at) / RFU TPSAB1 /// TPSB2 (11721975_s_at) / Fold change /veh TPSAB1 /// TPSB2 (11721975_s_at) / RFU GSTM3 (11746129_a_at) / Fold change /veh GSTM3 (11746129_a_at) / RFU IL23R (11737362_x_at) / Fold change /veh IL23R (11737362_x_at) / RFU TMEM51 (11727254_a_at) / Fold change /veh TMEM51 (11727254_a_at) / RFU PIWIL2 (11732686_x_at) / Fold change /veh PIWIL2 (11732686_x_at) / RFU ORM1 (11744905_x_at) / Fold change /veh ORM1 (11744905_x_at) / RFU CCDC152 (11743942_at) / Fold change /veh CCDC152 (11743942_at) / RFU ECM1 (11717891_a_at) / Fold change /veh ECM1 (11717891_a_at) / RFU IL23R (11748794_a_at) / Fold change /veh IL23R (11748794_a_at) / RFU TNFAIP8L3 (11732012_x_at) / Fold change /veh TNFAIP8L3 (11732012_x_at) / RFU MBOAT4 (11741988_at) / Fold change /veh MBOAT4 (11741988_at) / RFU 11764193_at / Fold change /veh 11764193_at / RFU TMEM53 (11763286_at) / Fold change /veh TMEM53 (11763286_at) / RFU MAGEB2 (11727129_at) / Fold change /veh MAGEB2 (11727129_at) / RFU TMEM200A (11744735_a_at) / Fold change /veh TMEM200A (11744735_a_at) / RFU CCDC152 (11751479_a_at) / Fold change /veh CCDC152 (11751479_a_at) / RFU FAM211A (11726209_a_at) / Fold change /veh FAM211A (11726209_a_at) / RFU RGS16 (11746705_a_at) / Fold change /veh RGS16 (11746705_a_at) / RFU VCAN (11755009_s_at) / Fold change /veh VCAN (11755009_s_at) / RFU RHOB (11743442_s_at) / Fold change /veh RHOB (11743442_s_at) / RFU RGS16 (11720943_a_at) / Fold change /veh RGS16 (11720943_a_at) / RFU RGS16 (11720944_at) / Fold change /veh RGS16 (11720944_at) / RFU, VPS4B / Fold change vs veh, VPS4B / RFU, CREB1 / Fold change vs veh, CREB1 / RFU, DNAJC13 / Fold change vs veh, DNAJC13 / RFU, GNAQ / Fold change vs veh, GNAQ / RFU, CDK5R1 / Fold change vs veh, CDK5R1 / RFU, ZRANB3 / Fold change vs veh, ZRANB3 / RFU, CUL4A / Fold change vs veh, CUL4A / RFU, CCNY / Fold change vs veh, CCNY / RFU, UFL1 / Fold change vs veh, UFL1 / RFU, COG3 / Fold change vs veh, COG3 / RFU, DIAPH2 / Fold change vs veh, DIAPH2 / RFU, SKA2 / Fold change vs veh, SKA2 / RFU, AFF3 / Fold change vs veh, AFF3 / RFU, LMF1 / Fold change vs veh, LMF1 / RFU, IPO11 / Fold change vs veh, IPO11 / RFU, DFFB / Fold change vs veh, DFFB / RFU, FOXP1 / Fold change vs veh, FOXP1 / RFU, CARD8 / Fold change vs veh, CARD8 / RFU, STRN3 / Fold change vs veh, STRN3 / RFU, ADK / Fold change vs veh, ADK / RFU, RASSF2 / Fold change vs veh, RASSF2 / RFU, WIPF1 / Fold change vs veh, WIPF1 / RFU, LARP1B / Fold change vs veh, LARP1B / RFU, RASA1 / Fold change vs veh, RASA1 / RFU, RB1 / Fold change vs veh, RB1 / RFU, PPFIA1 / Fold change vs veh, PPFIA1 / RFU, MAT2A / Fold change vs veh, MAT2A / RFU, CCT5 / Fold change vs veh, CCT5 / RFU, WDR92 / Fold change vs veh, WDR92 / RFU, CUX1 / Fold change vs veh, CUX1 / RFU, TTC7A / Fold change vs veh, TTC7A / RFU, TMEM135 / Fold change vs veh, TMEM135 / RFU, DEPTOR / Fold change vs veh, DEPTOR / RFU, CPM / Fold change vs veh, CPM / RFU, DNAJB6 / Fold change vs veh, DNAJB6 / RFU, CACNA2D3 / Fold change vs veh, CACNA2D3 / RFU, DTX4 / Fold change vs veh, DTX4 / RFU, TFCP2 / Fold change vs veh, TFCP2 / RFU, GMCL1 /// GMCL1P1 / Fold change vs veh, GMCL1 /// GMCL1P1 / RFU, AEBP2 / Fold change vs veh, AEBP2 / RFU, SNHG1 /// SNORD22 /// SNORD25 /// SNORD26 /// SNORD27 /// SNORD28 /// SNORD29 /// SNORD31 / Fold change vs veh, SNHG1 /// SNORD22 /// SNORD25 /// SNORD26 /// SNORD27 /// SNORD28 /// SNORD29 /// SNORD31 / Fold change (Aza/veh), C12orf56 (ProbeSet 11735607_a_at) / Fold change (ACY-1035/veh), C12orf56 (ProbeSet 11735607_a_at) / Fold change (Aza/veh), FGFR1OP (ProbeSet 11751329_s_at) / Fold change (ACY-1035/veh), FGFR1OP (ProbeSet 11751329_s_at) / Fold change (Aza/veh), VPS36 (ProbeSet 11739960_a_at) / Fold change (ACY-1035/veh), VPS36 (ProbeSet 11739960_a_at) / RFU SYPL1 (11715823_x_at) / Fold change /veh SYPL1 (11715823_x_at) / RFU IGFBP7 (11715501_s_at) / Fold change /veh IGFBP7 (11715501_s_at) / RFU REEP3 (11722064_at) / Fold change /veh REEP3 (11722064_at) / RFU IGLL1 (11728026_x_at) / Fold change /veh IGLL1 (11728026_x_at): dose or concentration left out as unconfirmed
Conditions: ProbeSet 11717876_a_at; LIST D

## Nc1ncn([C@@H]2O[C@H](CO)[C@@H](O)[C@H]2O)c(=O)n1 [azacitidine]
  RFU, PPFIA1: 24.22 RFU

From publication PMC5218480 (PLoS ONE, 2017)
